In patent US8034937B2, “Azaspiro derivatives” (Hoffmann-La Roche Inc., priority 2006, dated 2011):
Where a name gives a salt, the structure may show the parent alone.

target: T1, human V1a receptor (Homo sapiens, UniProt P37288); assay: human V1a receptor binding (3H-Vasopressin SPA, HEK293 membranes); conditions: 3H-Vasopressin displacement, membranes of HEK293 cells transiently transfected with human V1a; Ki by Cheng-Prussoff; read-out: pKi (hV1a) (converted)
T1 construct: expressed in transfected cells; host or cells: HEK293 cells, transiently transfected; membranes prepared
Experimental: The human V1a receptor was cloned by RT-PCR from total human liver RNA. The coding sequence was subcloned in an expression vector after sequencing to confirm the identity of the amplified sequence. […] Cell membranes were prepared from HEK293 cells transiently transfected with the expression vector and grown in 20 liter fermenters with the following protocol.
50 g of cells were resuspended in 30 ml freshly prepared ice cold Lysis buffer (50 mM HEPES, 1 mM EDTA, 10 mM MgCl2 adjusted to pH=7.4+complete cocktail of protease inhibitor (Roche Diagnostics)); homogenized with Polytron for 1 min, and sonicated on ice for 2×2 minutes at 80% intensity (Vibracell sonicator). The preparation was centrifuged 20 min at 500 g at 4° C., the pellet was discarded and the supernatant centrifuged 1 hour at 43,000 g at 4° C. (19,000 rpm). The pellet was resuspended in 12.5 ml Lysis buffer+12.5 ml Sucrose 20% and homogenized using a Polytron for 1-2 min. The protein concentration was determined by the Bradford method and aliquots were stored at −80° C. until use. For binding studies 60 mg Yttrium silicate SPA beads (Amersham) were mixed with an aliquot of membrane in binding buffer (50 mM Tris, 120 mM NaCl, 5 mM KCl, 2 mM CaCl2, 10 mM MgCl2) for 15 minutes with mixing. 50 ul of bead/membrane mixture was then added to each well of a 96 well plate, followed by 50 ul of 4 nM 3H-Vasopressin (American Radiolabeled Chemicals). For total binding measurement 100 ul of binding buffer were added to the respective wells, for non-specific binding 100 ul of 8.4 mM cold vasopressin and for compound testing 100 ul of a serial dilution of each compound in 2% DMSO. The plate was incubated 1 h at room temperature, centrifuged 1 min at 1000 g and counted on a Packard Top-Count. Non-specific binding counts wee subtracted from each well and data was normalized to the maximum specific binding set at 100%. To calculate an IC 50 the curve was fitted using a non-linear regression model (XLfit), and the Ki was calculated using the Cheng-Prussoff equation.

T1 sequence (P37288 whole entry): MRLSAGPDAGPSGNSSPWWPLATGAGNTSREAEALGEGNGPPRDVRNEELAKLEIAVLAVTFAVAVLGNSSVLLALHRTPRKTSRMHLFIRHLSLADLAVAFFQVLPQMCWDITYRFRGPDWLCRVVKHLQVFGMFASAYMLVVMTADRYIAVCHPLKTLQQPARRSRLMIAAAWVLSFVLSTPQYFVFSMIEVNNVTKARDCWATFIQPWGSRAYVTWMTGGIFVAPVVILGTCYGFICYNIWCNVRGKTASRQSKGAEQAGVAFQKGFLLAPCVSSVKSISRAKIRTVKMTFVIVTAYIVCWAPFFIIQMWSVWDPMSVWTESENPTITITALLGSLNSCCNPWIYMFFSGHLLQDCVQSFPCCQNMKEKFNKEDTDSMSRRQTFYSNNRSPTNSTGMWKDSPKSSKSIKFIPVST

Row | SMILES | Ki
1 | O=C(c1cn(C[C@@H]2CCCN2)c2cc(Cl)ccc12)N1CCC2(CC1)OCc1ncccc12 [Compound 3, 1′-({6-Chloro-1-[(2S)-pyrrolidin-2-ylmethyl]-1H-indol-3-yl}carbonyl)-7H-spiro[furo[3,4-b]pyridine-5,4′-piperidine]dihydrochloride] | 25.1 nM
2 | CN1CCC[C@H]1Cn1cc(C(=O)N2CCC3(CC2)OCc2ncccc23)c2ccc(Cl)cc21 [Compound 4, 1′-[(6-Chloro-1-{[(2S)-1-methylpyrrolidin-2-yl]methyl}-1H-indol-3-yl)carbonyl]-7H-spiro[furo[3,4-b]pyridine-5,4′-piperidine]] | 1.55 nM
3 | O=C(c1cn(Cc2cc(F)cc(F)c2)c2cc(Cl)ccc12)N1CCC2(CC1)OCc1ncccc12 [Compound 5, 1′-{[6-Chloro-1-(3,5-difluorobenzyl)-1H-indol-3-yl]carbonyl}-7H-spiro[furo[3,4-b]pyridine-5,4′-piperidine]] | 4.37 nM
4 | O=C(c1c[nH]c2cc(Cl)ccc12)N1CCC2(CC1)OCc1cccnc12 [Compound 6, 1′-[(6-Chloro-1H-indol-3-yl)carbonyl]-5H-spiro[furo[3,4-b]pyridine-7,4′-piperidine]] | 5.25 nM
5 | CC(C)(C)OC(=O)N1CCC[C@H]1Cn1cc(C(=O)N2CCC3(CC2)OCc2cccnc23)c2ccc(Cl)cc21 [Compound 7, tert-Butyl (2S)-2-{[6-chloro-3-(1′H,5H-spiro[furo[3,4-b]pyridine-7,4′-piperidin]-1′-ylcarbonyl)-1H-indol-1-yl]methyl}pyrrolidine-1-carboxylate] | 22.9 nM
6 | O=C(c1cn(C[C@@H]2CCCN2)c2cc(Cl)ccc12)N1CCC2(CC1)OCc1cccnc12 [Compound 8, 1′-({6-Chloro-1-[(2S)-pyrrolidin-2-ylmethyl]-1H-indol-3-yl}carbonyl)-5H-spiro[furo[3,4-b]pyridine-7,4′-piperidine]dihydrochloride] | 3.31 nM
7 | CN1CCC[C@H]1Cn1cc(C(=O)N2CCC3(CC2)OCc2cccnc23)c2ccc(Cl)cc21 [Compound 9, 1′-[(6-Chloro-1-1{[(2S)-1-methylpyrrolidin-2-yl]methyl}-1H-indol-3-yl)carbonyl]-5H-spiro[furo[3,4-b]pyridine-7,4′-piperidine]] | 1 nM
8 | O=C(c1c[nH]c2cc(Cl)ccc12)N1CCC2(CC1)OCc1ccncc12 [Compound 10, 1′-[(6-Chloro-1H-indol-3-yl)carbonyl]-1H-spiro[furo[3,4-c]pyridine-3,4′-piperidine]] | 8.71 nM
9 | CC(C)(C)OC(=O)N1CCC[C@H]1Cn1cc(C(=O)N2CCC3(CC2)OCc2ccncc23)c2ccc(Cl)cc21 [Compound 11, tert-Butyl (2S)-2-{[6-chloro-3-(1H, 1′H-spiro[furo[3,4-c]pyridine-3,4′-piperidin]-1′-ylcarbonyl)-1H-indol-1-yl]methyl}pyrrolidine-1-carboxylate] | 23.4 nM
10 | O=C(c1cn(C[C@@H]2CCCN2)c2cc(Cl)ccc12)N1CCC2(CC1)OCc1ccncc12 [Compound 12, 1′-({6-Chloro-1-[(2S)-pyrrolidin-2-ylmethyl]-1H-indol-3-yl}carbonyl)-1H-spiro[furo[3,4-c]pyridine-3,4′-piperidine]dihydrochloride] | 4.57 nM
11 | CN1CCC[C@H]1Cn1cc(C(=O)N2CCC3(CC2)OCc2ccncc23)c2ccc(Cl)cc21 [Compound 13, 1′-[(6-Chloro-1-{[(2S)-1-methylpyrrolidin-2-yl]methyl}-1H-indol-3-yl)carbonyl]-1H-spiro[furo[3,4-c]pyridine-3,4′-piperidine]] | 1.1 nM
12 | O=C(c1cn(Cc2cc(F)cc(F)c2)c2cc(Cl)ccc12)N1CCC2(CC1)OCc1cccnc12 [Compound 14, 1′-{[6-Chloro-1-(3,5-difluorobenzyl)-1H-indol-3-yl]carbonyl}-5H-spiro[furo[3,4-b]pyridine-7,4′-piperidine]] | 4.27 nM
